Measured values taken from patent US11266662B2, “Ganaxolone for use in prophylaxis and treatment of postpartum depression” (Marinus Pharmaceuticals, Inc., priority 2018, dated 2022).

Assays:
[1] = tested on: women with postpartum depression; assay: Phase 2A study Cohort 6: efficacy (HAM-D17, CGI-I, EPDS, STAI6) versus placebo; type: in vivo, human; conditions: for Placebo-adjusted difference, HAM-D17 (LS Mean), early efficacy / Placebo-adjusted difference, HAM-D17 (LS Mean), late efficacy: Cohort 6: IV 20 mg/hr for 6 h then 900 mg orally for 28 days; for Placebo-adjusted difference, HAM-D17 (LS Mean), late efficacy: Day 29
Experimental: Approximately 10-30 subjects are randomized into each cohort.
The primary efficacy endpoint is HAM-D17 total score change from baseline to 60 hours post-infusion (on Day 3) for Cohorts 1-3 and to Day 29 for Cohort 6. The primary analysis in each cohort is done using the mITT set. Although the trial is not powered for inferential analysis and there is no consideration for control of type 1 error across multiple cohorts, a clinically meaningful numeric difference in means of 3-4 points, based on mITT analysis, between ganaxalone and placebo treatment groups is considered an indication of acceptable efficacy and is be the most influential outcome in the overall assessment of the efficacy of ganaxolone in treating PPD.
The trial also evaluates the following secondary endpoints at each post-baseline data collection time point to provide additional evidence of the efficacy of ganaxolone in treating PPD: • Change from baseline in HAM-D17 total score other than at 60 hours post-infusion (on Day 3) for Cohorts 1-3 and to Day 29 for Cohort 6 • Change from baseline in EPDS total score • Change from baseline in STAI6 • CGI-I. Exploratory Endpoints

[2] = Excretion of radioactivity; conditions: all species
[3] = IV bolus plus continuous IV infusion toxicity in dog, 28 days; conditions: in vivo

CC(=O)[C@H]1CC[C@H]2[C@@H]3CC[C@H]4C[C@](C)(O)CC[C@]4(C)[C@H]3CC[C@]12C [ganaxolone, 3α-hydroxy-3β-methyl-5α-pregnan-20-one]
EPDS and STAI6 versus placebo ([1]; Cohort 6): numeric advantage at all timepoints till Day 29 | Placebo-adjusted difference, HAM-D17 (LS Mean), early efficacy ([1]; PP, 6 hours): −3.4 | Placebo-adjusted difference, HAM-D17 (LS Mean), early efficacy ([1]; PP, Day 2): −2.7 | Placebo-adjusted difference, HAM-D17 (LS Mean), late efficacy ([1]; PP): −2.6 | Placebo-adjusted difference, HAM-D17 (LS Mean), early efficacy ([1]; mITT, 6 hours): −2.8 | Placebo-adjusted difference, HAM-D17 (LS Mean), early efficacy ([1]; mITT, Day 2): −2.6 | Placebo-adjusted difference, HAM-D17 (LS Mean), late efficacy ([1]; mITT): +1 | HAMD17 change from baseline, PP analysis and sensitivity by site analyses ([1]; Cohort 6, after Day 2): favors GNX | HAMD17 decrease versus placebo ([1]; Cohort 6, at 6 hours and on Day2, both mITT, PP): favor ganaxolone | CGI-I decrease versus placebo ([1]; Cohort 6, both mITT, PP, early timepoint): favors GNX | HAMD17 mITT analysis at late and intermediate timepoints during oral treatment ([1]; Cohort 6, mITT): not different from placebo | CGI-I versus placebo ([1]; Cohort 6, mITT and PP, Day 2, Day 8, Day 15, Day 29 (p<0.05)): favors GNX at all timepoints | Excreted radioactivity via faeces [2]: > 70% | NOAEL at 28 days [3]: 7.2 mg/kg/day
